The values that follow come from ChEMBL document CHEMBL3132769, “Fragment growing to retain or alter the selectivity of anchored kinase hinge-binding fragments” (Medchemcomm, 2014).

For experiment [1], the target named is T1, Aurora kinase C (Homo sapiens) (UniProt Q9UQB9).
T1 sequence (whole entry): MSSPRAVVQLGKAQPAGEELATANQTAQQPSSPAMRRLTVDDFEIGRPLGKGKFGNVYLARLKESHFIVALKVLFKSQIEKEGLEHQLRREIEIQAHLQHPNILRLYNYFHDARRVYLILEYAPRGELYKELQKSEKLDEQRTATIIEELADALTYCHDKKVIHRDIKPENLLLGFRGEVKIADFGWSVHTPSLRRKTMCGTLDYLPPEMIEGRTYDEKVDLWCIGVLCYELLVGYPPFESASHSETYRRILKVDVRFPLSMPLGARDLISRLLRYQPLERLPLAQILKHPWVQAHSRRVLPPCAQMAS
The experiment can be described thus: Inhibition of human full length AurC expressed in baculovirus assessed as substrate phosphorylation using fluorescence-labelled peptides as substrate at 420 uM after 90 mins by microfluidic peptide phosphorylation assay.

The target in experiment [2] is Receptor-type tyrosine-protein kinase FLT3 (Homo sapiens) (UniProt P36888). The experiment can be described thus: Inhibition of human FLT3 catalytic domain expressed in baculovirus assessed as substrate phosphorylation using fluorescence-labelled peptides as substrate at 8 uM after 90 mins by microfluidic peptide phosphorylation assay.
The target of experiment [3] is Protein kinase C beta type (Homo sapiens) (UniProt P05771). The experiment can be described thus: Inhibition of human truncated PKC beta1 expressed in baculovirus assessed as substrate phosphorylation using fluorescence-labelled peptides as substrate at 0.06 uM after 90 mins by microfluidic peptide phosphorylation assay.
Experiment [4] has as its target T2, Serine/threonine-protein kinase BRSK2 (Homo sapiens) (UniProt Q8IWQ3).
T2 sequence (whole entry): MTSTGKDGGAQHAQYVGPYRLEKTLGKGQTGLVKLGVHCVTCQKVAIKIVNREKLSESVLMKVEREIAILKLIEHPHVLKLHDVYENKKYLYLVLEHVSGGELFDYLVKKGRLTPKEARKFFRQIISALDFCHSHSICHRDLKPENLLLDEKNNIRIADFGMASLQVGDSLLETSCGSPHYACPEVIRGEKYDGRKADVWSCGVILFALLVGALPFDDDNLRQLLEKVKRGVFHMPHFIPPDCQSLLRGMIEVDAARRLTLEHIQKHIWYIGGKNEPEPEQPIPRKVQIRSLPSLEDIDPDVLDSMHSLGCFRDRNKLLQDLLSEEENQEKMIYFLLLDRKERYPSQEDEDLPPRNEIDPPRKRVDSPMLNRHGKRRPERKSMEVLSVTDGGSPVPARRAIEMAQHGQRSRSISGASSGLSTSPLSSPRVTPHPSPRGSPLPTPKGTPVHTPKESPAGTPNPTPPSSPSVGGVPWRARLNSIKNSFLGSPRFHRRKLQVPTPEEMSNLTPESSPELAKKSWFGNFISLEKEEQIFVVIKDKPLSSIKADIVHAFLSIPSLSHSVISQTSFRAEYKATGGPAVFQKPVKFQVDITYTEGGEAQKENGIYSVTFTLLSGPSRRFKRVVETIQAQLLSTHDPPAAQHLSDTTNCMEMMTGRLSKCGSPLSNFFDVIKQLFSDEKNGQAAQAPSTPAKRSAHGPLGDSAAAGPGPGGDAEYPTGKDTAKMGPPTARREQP
The experiment can be described thus: Inhibition of human truncated BRSK2 expressed in baculovirus assessed as substrate phosphorylation using fluorescence-labelled peptides as substrate at 0.06 uM after 90 mins by microfluidic peptide phosphorylation assay.

Protein kinase C beta type (Homo sapiens), sequence (P05771 2-671 limits assumed): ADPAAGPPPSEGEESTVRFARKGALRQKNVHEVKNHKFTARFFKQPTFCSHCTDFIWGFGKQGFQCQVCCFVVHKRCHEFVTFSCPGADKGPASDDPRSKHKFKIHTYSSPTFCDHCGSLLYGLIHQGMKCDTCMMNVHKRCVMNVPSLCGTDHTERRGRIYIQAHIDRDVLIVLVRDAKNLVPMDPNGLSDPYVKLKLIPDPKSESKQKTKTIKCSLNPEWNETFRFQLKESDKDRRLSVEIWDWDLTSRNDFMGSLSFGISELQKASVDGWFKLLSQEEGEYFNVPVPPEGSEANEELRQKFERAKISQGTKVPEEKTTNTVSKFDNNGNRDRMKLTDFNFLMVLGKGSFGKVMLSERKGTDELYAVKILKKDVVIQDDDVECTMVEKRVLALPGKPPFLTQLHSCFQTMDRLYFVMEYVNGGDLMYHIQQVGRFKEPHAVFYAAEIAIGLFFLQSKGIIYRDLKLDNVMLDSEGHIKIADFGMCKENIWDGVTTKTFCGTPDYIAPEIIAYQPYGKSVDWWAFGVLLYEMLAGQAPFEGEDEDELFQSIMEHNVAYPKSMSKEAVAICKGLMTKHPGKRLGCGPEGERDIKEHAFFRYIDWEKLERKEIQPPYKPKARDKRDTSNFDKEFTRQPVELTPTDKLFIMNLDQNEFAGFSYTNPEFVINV
Receptor-type tyrosine-protein kinase FLT3 (Homo sapiens), sequence (P36888 whole entry, the tested form may be a part): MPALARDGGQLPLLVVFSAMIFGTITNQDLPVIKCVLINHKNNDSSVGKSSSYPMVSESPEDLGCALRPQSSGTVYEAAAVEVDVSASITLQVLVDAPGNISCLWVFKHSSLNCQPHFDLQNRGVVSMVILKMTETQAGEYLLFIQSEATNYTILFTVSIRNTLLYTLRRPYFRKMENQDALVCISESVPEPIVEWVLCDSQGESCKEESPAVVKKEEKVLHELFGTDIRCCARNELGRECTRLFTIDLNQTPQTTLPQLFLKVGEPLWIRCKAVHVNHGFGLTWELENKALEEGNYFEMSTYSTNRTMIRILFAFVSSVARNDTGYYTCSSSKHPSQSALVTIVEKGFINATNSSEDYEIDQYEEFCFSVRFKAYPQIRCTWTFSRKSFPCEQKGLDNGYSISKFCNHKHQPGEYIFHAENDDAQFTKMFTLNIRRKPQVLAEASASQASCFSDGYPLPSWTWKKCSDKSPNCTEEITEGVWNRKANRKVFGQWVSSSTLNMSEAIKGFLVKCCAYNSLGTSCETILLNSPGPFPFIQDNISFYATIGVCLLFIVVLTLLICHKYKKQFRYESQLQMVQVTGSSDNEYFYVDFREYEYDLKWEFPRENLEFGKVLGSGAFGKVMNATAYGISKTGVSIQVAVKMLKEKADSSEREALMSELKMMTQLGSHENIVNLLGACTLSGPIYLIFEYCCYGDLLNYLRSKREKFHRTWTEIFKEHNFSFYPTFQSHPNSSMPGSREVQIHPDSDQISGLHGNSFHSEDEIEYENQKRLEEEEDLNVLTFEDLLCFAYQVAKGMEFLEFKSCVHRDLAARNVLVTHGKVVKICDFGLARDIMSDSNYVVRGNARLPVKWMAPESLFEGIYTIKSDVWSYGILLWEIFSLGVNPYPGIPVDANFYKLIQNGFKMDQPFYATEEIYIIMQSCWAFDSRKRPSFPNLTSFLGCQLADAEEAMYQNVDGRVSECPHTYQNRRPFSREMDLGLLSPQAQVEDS

As a reminder, the inhibition is the relative decrease from the control value, in per cent. For the compound `c1nc(N2CCOCC2)c2nc[nH]c2n1`, the inhibition in experiment [1] was 95.5%.

For the compound `NCC1CCN(c2ncnc3[nH]ccc23)CC1`, in experiment [2], the inhibition turned out to be 0%.

As to `NC1(Cc2ccc(Cl)cc2)CCN(c2ncnc3[nH]ccc23)CC1`, the inhibition in experiment [3] was determined as 3.5%; in experiment [4], 0%.
